Data on seven compounds can be found in publication PMC4096598 (PLoS ONE, 2014).

“And” between values parts separate entries of the source, which are not always exact repeats. Equal entries are not always repeated. Where two headings read alike, the source gives them in different places. Ends that are not written are not given here.

The subject of data set [1] is Mycobacterium tuberculosis MDR (clinically isolated multidrug resistant strain). As to conditions: literature value ref Rastogi, et al., 1996 [55]; cited from earlier work.
Assay in data set [2]: not given
This is another data set of the same source.

Data set [3] has as its system Mycobacterium tuberculosis MDR (clinically isolated multidrug resistant strain). The following applies: MDR (clinically isolated multidrug resistant strain, 24 h).

Turning to `CC[C@@H](CO)NCCN[C@@H](CC)CO` [Ethambutol], in data set [1], the “MIC Mycobacterium tuberculosis MDR” value was 20 µg/mL and 97 µM.

On to `CO[C@H]1/C=C/O[C@@]2(C)Oc3c(C)c(O)c4c(O)c(c(/C=N/N5CCN(C)CC5)c(O)c4c3C2=O)NC(=O)/C(C)=C\C=C\[C@H](C)[C@H](O)[C@@H](C)[C@@H](O)[C@@H](C)[C@H](OC(C)=O)[C@@H]1C` [Rifampicin], for which, in data set [1], the “MIC Mycobacterium tuberculosis MDR” value is 32 µg/mL and 38.9 µM.

The compound FWGALAKGALKLIGPGSLFSSFSKKD [Pin2 [GPG]] showed a maximum alpha-helical structure of 60%.

In turn, FWGALAKGALKLIGSLFSSFSKKD [Pin2 [G]] registered a maximum alpha-helical structure of 60%. Further, in data set [2], the alpha-helical structure in absence of TFE amounted to 20%. The “MIC Mycobacterium tuberculosis MDR” value in data set [3] was 18.7 µM.

Take “FWGALAKGALKLIPSLFSSFSKKD [Pin2, Pandinin 2, reference compound]”: the “MIC Mycobacterium tuberculosis MDR” value in data set [3] is listed as 33.1 µM.

In the case of FWGLKGLKGPGKFSKKL [Pin2 [17]], the “MIC Mycobacterium tuberculosis MDR” value in data set [3] turned out to be 14.8 ± 5.2 µM.

As for FWGLKGLKKFSKKL [Pin2 [14]], the “MIC Mycobacterium tuberculosis MDR” value in data set [3] was 6 ± 1.8 µM.
